Source: patent US11959916B2, “Method, system, and program for supplying immunodynamics-related information” (priority 2017, dated 2024)

System: eosinophil
Test: Eosinophil count in peripheral blood of the prostate cancer subject
Conditions: Claritin in addition to Allegra from July 1, 2016

## CC(C)(C(=O)O)c1ccc(C(O)CCCN2CCC(C(O)(c3ccccc3)c3ccccc3)CC2)cc1 (stereo not shown) [Allegra, fexofenadine]
  eosinophil count in peripheral blood, change in words: started to decrease
